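Grown in 96-well plates, cells were treated for 48 hours with each compound at five concentrations. Insufficient inhibition: endpoint recorded as highest concentration tested. GI50 is the concentration that inhibits growth by half. TGI denotes the concentration required for complete inhibition of growth.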
Assays:
Experiment in all cases: inhibition of tumour cell growth, NCI panel, 48 h
IGROV1 ovarian = system: IGROV1 ovarian
MOLT-4 leukemia = system: MOLT-4 leukemia
NCI-H226 lung = system: NCI-H226 lung
KM12 colon = system: KM12 colon
OVCAR-4 ovarian = system: OVCAR-4 ovarian
HCC-2998 colon = system: HCC-2998 colon
HCT-15 colon = system: HCT-15 colon
U251 CNS = system: U251 CNS
SK-OV-3 ovarian = system: SK-OV-3 ovarian

SMILES	TGI (IGROV1 ovarian)	TGI (MOLT-4 leukemia)	TGI (NCI-H226 lung)	TGI (KM12 colon)	TGI (OVCAR-4 ovarian)	TGI (HCC-2998 colon)	TGI (HCT-15 colon)	TGI (U251 CNS)	GI50 (IGROV1 ovarian)	GI50 (MOLT-4 leukemia)	GI50 (SK-OV-3 ovarian)	TGI (SK-OV-3 ovarian)	GI50 (KM12 colon)	GI50 (OVCAR-4 ovarian)	GI50 (HCC-2998 colon)	GI50 (HCT-15 colon)	GI50 (U251 CNS)	GI50 (NCI-H226 lung)
NCCn1ccc(NC(c2ccccc2)(c2ccccc2)c2ccccc2)nc1=O	> 100 µM	44.8 µM	32.8 µM	52.3 µM	> 100 µM	31.9 µM	> 100 µM	39.4 µM										
COc1ccc2nc3ccccc3c(NCCCCCN(CCCl)CCCl)c2c1			0.801 µM	2.14 µM	0.771 µM	0.23 µM		0.5 µM										
COc1cc[c]([Sb]([Br])([CH]=C(C)C)([CH]=C(C)C)[CH]=C(C)C)cc1	66.1 µM	> 100 µM		25.6 µM	> 100 µM	> 100 µM	> 100 µM	72.8 µM	3.06 µM	10.6 µM	8.94 µM	48.3 µM	1.98 µM	5.89 µM	6.53 µM	40.5 µM	9.37 µM	
CC1(C(=O)NCCN(CCNC(=O)C2(C)CC3(C)CC(C)(C2)C(=O)NC3=O)CCNC(=O)C2(C)CC3(C)CC(C)(C2)C(=O)NC3=O)CC2(C)CC(C)(C1)C(=O)NC2=O (centres undefined)	> 100 µM	> 100 µM		> 100 µM	> 100 µM	> 100 µM	> 100 µM	> 100 µM				> 100 µM						
O=C(N[C@@H]1C=CCC[C@@H]1c1ccccc1)OCc1ccccc1	68.9 µM	34.6 µM	36.4 µM	33.9 µM	42.4 µM	49.3 µM	38.3 µM	32.9 µM				> 100 µM						
CCN1CCC2(CC1)NC(=O)c1c(c3ccc(Cl)c(Cl)c3n1C)C2C#N (centres undefined)	8.97 µM	8.66 µM	23.7 µM		15.1 µM	3.26 µM	4.75 µM	12 µM	3.11 µM	2.43 µM	6.99 µM	22.2 µM		3.83 µM	1.73 µM	1.81 µM	2.83 µM	5.67 µM
NC(=S)N/N=C1\C(=O)N(CCc2ccccc2)C(=O)C1C(=O)NCCc1ccccc1 (centres undefined)	> 100 µM		> 100 µM	> 100 µM	> 100 µM	> 100 µM	> 100 µM	> 100 µM				> 100 µM						
O=C(c1ccco1)c1ccccc1C(=O)c1ccco1	> 100 µM	> 100 µM	> 100 µM	> 100 µM	> 100 µM	> 100 µM	> 100 µM	> 100 µM										
Cc1ccc(/C=N/NS(=O)(=O)c2ccccc2)cc1	> 100 µM	> 100 µM	> 100 µM	> 100 µM	> 100 µM	> 100 µM	> 100 µM	> 100 µM				> 100 µM						
COc1cc(-c2nc(-c3nnc(-c4ccc(F)c(Cl)c4)o3)c3ccccn23)cc(OC)c1OC	> 100 µM	> 100 µM	6.07 µM			> 100 µM	> 100 µM	4.43 µM	3.61 µM	> 100 µM					5.64 µM	4.55 µM	1.86 µM	2.38 µM
Cc1cccc(Cl)c1NC(N)=S	> 100 µM	> 100 µM	> 100 µM	> 100 µM	> 100 µM	> 100 µM	37.1 µM	49.7 µM				> 100 µM						
NC1=NN(c2ccccc2)C(=O)C1/C(=N\NC(=O)c1cc2ccccc2cc1O)C(=O)Nc1nc([N+](=O)[O-])cs1 (centres undefined)	94.4 µM	58.8 µM	> 100 µM	> 80 µM	> 100 µM	> 100 µM	> 74.1 µM	> 100 µM				> 100 µM						
CCCCNC(=O)OCC(COc1ccccc1OC)OC(=O)NCCCC (centres undefined)	> 100 µM	> 100 µM	> 100 µM	> 100 µM	> 100 µM	> 100 µM	> 100 µM	> 100 µM				> 100 µM						
O=C1NC2(CCCC2)/C(=N\O)C12CCCC2	> 100 µM	> 100 µM		> 100 µM	> 100 µM		> 100 µM	> 100 µM				> 100 µM						
Clc1ccccc1C1N2CCCCC2[C@@H]2c3[nH]c4ccccc4c3CCN12 (some centres undefined)	> 100 µM	82.6 µM			44.4 µM	36.9 µM	29.9 µM	31.9 µM				55 µM						
O=C(c1ccccn1)c1nc(-c2ccc(Cl)c(Cl)c2)nc2ccc(Cl)cc12	> 100 µM	> 100 µM	> 100 µM	> 100 µM	> 100 µM	> 100 µM	> 100 µM	> 100 µM				> 100 µM						
Cc1cc2c(=O)cc(-c3ccc(C(F)(F)F)cc3)oc2c(C(=O)O)c1C	> 100 µM	> 100 µM	> 100 µM	> 100 µM	> 100 µM		> 100 µM	> 100 µM				> 100 µM						
O=c1c2cc(Br)ccc2nc(-c2ccccc2)n1NCC1(O)OCC(O)C(O)C1O (centres undefined)		> 100 µM	> 100 µM	> 100 µM	> 100 µM		> 100 µM	> 100 µM				> 100 µM						

Reference: PubChem BioAssay (NCI)
